According to US20240398814A1, “KRAS INHIBITOR AND HDAC INHIBITOR COMBINATION FOR THE TREATMENT OF CANCER” (Northwestern University, priority 2023, published 2024):

How the values were obtained:
KL LJE1 cells = test: qRT-PCR of chemokine (HRCG) gene expression in KL LJE1 cells; assay type: cell-based, mouse
Protocol: (§1) All cell lines were incubated at 37° C. and were maintained in an atmosphere containing 5% CO2. Cells were tested for Mycoplasma (Lonza) using manufacturer's conditions and were deemed negative. Cells were grown in Dulbecco's modified Eagles medium (DMEM) plus 10% fetal bovine serum (Gibco) and were continuously maintained under antibiotic selection for stable cell lines. Proliferation assays were performed by plating 2×10^3 cells per well of a 6-well plate, and cells were counted 5 days post-plating. Drug treatments were carried out using the following doses: entinostat 1 uM or 2 uM, RGFP966 10uM, TSA 0.5 uM, BRD3308 5 uM, trametinib 5 nM, 10 nM, and 25 nM, and MRTX1133 10 nM, 25 nM, and 50 nM, as indicated for the indicated treatment lengths. Media was changed and fresh drug added every 2 days.
(§2) mRNA was prepared using the Quick-RNA Miniprep kit (Zymo Research), including DNase treatment. cDNA was synthesized from 2 μg of RNA using SuperScript III (Life Technologies), and qPCR was carried out with diluted cDNA, appropriate primers, and SYBR Green PCR master mix (ThermoFisher Scientific) using a C1000 Thermal Cycler (BioRad). Relative mRNA levels were calculated using the delta Ct method, using Tbp as an internal control.

NF-kB/p65 protein = test: Western blot of p65 nuclear localisation and K310 acetylation in KL LJE1 cells; assay type: cell-based, mouse
Protocol: Protein lysates in CST buffer (20 mM Tris pH 7.5, 150 mM NaCl, 1% Triton X-100, 50 mM NaF, 1 mM EDTA, 1 mM EGTA, 2.5 mM PyroPhosphate, 2 mM beta-glycerol-phosphate, 1 mM orthovanadate, 0.01 mM Calyculan A) with protease inhibitors were equilibrated for protein levels using a BCA protein assay kit (Pierce), resolved on 8% SDS-PAGE gels, and transferred to membrane. Membranes were blocked in milk, incubated o/n at 4C in diluted primary antibody, washed with TBS-T, incubated 1 hr in secondary antibody diluted in TBS-T plus milk, washed in TBS-T, and developed using SuperSignal ECL. Secondary antibodies: anti-rabbit (Millipore AP132P) and anti-mouse (Millipore AP124P). Nuclear fractions were isolated using a NE-PER nuclear and cytoplasmic extraction kit (Thermofisher) under manufacturers conditions.
p65-expressing DNA constructs RelA-Flag (22) (Addgene 20012) and GFP-RelA (21) (Addgene 23255) were transiently transfected into KL LJE1 cells using Lipofectamine 2000 (Thermo Fisher Scientific) according to the manufacturer's protocol. Cells were treated with drug as indicated 24 hours after transfection.

H460 cells = test: qRT-PCR of chemokine gene expression in H460 cells; assay type: cell-based, human; settings: 1 uM entinostat 4 days, 5 uM BRD3308 4 days
Protocol: as §1, §2

KL NSCLC GEMM = test: Short-term (5 day) in vivo entinostat treatment, qRT-PCR on lung tumors and liver; parameters: species or system mouse; settings: 10 mg/kg/day entinostat, oral gavage, 5 days
Protocol: KL mice were intratracheally intubated with lentivirus expressing Cre recombinase to initiate tumorigenesis and imaged biweekly by BLI starting 4 weeks after Cre administration. When tumor burden in all mice was greater than 5×107 photons/see as determined by BLI, treatment was initiated. Mice were randomized and treated daily by oral gavage for 5 days with vehicle or 10 mg/kg entinostat. In vivo treatment doses were selected based on publications (39, 69-71). Entinostat was diluted to 1 mg/mL in vehicle (0.5% Methyl cellulose in water), vortexed, sonicated 10 minutes, and administered at 10 mg/kg. Drug and vehicle was administered starting at ˜9am daily throughout the duration of treatment. The experiment was terminated after 5 days of treatment, at which time primary lung tumors and liver were isolated by dissection and immediately flash frozen.
as §2
Next, pharmacological inhibition of HDAC3 was assessed for impacting HRCG expression in vivo as observed in cell culture experiments (FIG. 12B, 18D-G). Lung tumorigenesis was initiated in KL GEMM mice, and disease growth was monitored over time using bioluminescence imaging (BLI) potentiated by the Rosa26^LSL-luferase genetic allele. When tumor burden was established in all mice (BLI >5×10^7 photons/sec), mice were randomized and treatment was initiated. Mice were treated daily for 5 days with vehicle or 10 mg/kg/day entinostat administered by oral gavage, after which lung tumors and liver were collected (FIG. 14C). Using qRT-PCR, gene expression of HDAC3 target genes in lung tumors and liver was assessed. […] To confirm that entinostat treatment was engaging on-target effects in the liver samples, the gene expression of canonical HDAC3 liver target genes Nr1d1 and Arntl was assessed (FIG. 14E).

For `Nc1ccccc1NC(=O)c1ccc(CNC(=O)OCc2cccnc2)cc1` [entinostat], the “HRCG gene expression response in cells expressing p65 WT or p65 K310A” value (KL LJE1 cells; 3 days, 1 uM entinostat) was “K310 only significantly altered the gene expression response of Cc120, Cxc15, and Cc15”, the “gene expression induction in NT versus p65 KO cells” value (KL LJE1 cells; 3 days, 1 uM entinostat or 5 uM BRD3308) was “p65 facilitates maximal gene expression induction” and the “chemokine (SASP) gene expression” value (KL LJE1 cells; 72 hr, 2 uM entinostat or 10uM RGFP966) was “robust induction of gene expression”. The “acetylation of wildtype p65 at K310 (versus K310A mutant)” value (NF-kB/p65 protein; 5 hours, 1 uM entinostat or 5 uM BRD3308) was “induce acetylation of wildtype p65 at K310”, the “K310 acetylation on transfected p65” value (NF-kB/p65 protein; Flag-p65 or GFP-p65, 6 hr, 2 uM entinostat) was “increased K310 acetylation on p65” and the “quantity of p65 protein in the nuclear fraction” value (NF-kB/p65 protein; Western blot, 6 hr, 2 uM entinostat, 10uM RGFP966, 0.5 uM TSA) was “increased the quantity of p65 protein in the nuclear fraction”. For the same compound, the “chemokine (SASP) gene expression” value (H460 cells) was “induced the expression of these genes”, the “Cxc110 expression in vivo, lung tumors versus liver” value (KL NSCLC GEMM) was “induced upon entinostat treatment selectively in lung tumor cells” and the “HRCG expression in livers from the same mice” value (KL NSCLC GEMM) was “did not induce HRCG expression”. The “HRCG expression in lung tumors” value (KL NSCLC GEMM) was “potently induced HRCG expression” and the “Nr1d1 and Arntl gene expression in the liver” value (KL NSCLC GEMM) was “impacted Nr1d1 and Arntl gene expression in the liver”.
